Measured values taken from ChEMBL document CHEMBL2218064, “Structure-activity relationship data for chemical series of antagonists of the P2X7 receptor (Supplementary Bioactivity Data for publication CHEMBL1157114)”.

Biological target: T1, P2X purinoceptor 7 (Homo sapiens, UniProt Q99572)
T1 sequence (Q99572 whole entry): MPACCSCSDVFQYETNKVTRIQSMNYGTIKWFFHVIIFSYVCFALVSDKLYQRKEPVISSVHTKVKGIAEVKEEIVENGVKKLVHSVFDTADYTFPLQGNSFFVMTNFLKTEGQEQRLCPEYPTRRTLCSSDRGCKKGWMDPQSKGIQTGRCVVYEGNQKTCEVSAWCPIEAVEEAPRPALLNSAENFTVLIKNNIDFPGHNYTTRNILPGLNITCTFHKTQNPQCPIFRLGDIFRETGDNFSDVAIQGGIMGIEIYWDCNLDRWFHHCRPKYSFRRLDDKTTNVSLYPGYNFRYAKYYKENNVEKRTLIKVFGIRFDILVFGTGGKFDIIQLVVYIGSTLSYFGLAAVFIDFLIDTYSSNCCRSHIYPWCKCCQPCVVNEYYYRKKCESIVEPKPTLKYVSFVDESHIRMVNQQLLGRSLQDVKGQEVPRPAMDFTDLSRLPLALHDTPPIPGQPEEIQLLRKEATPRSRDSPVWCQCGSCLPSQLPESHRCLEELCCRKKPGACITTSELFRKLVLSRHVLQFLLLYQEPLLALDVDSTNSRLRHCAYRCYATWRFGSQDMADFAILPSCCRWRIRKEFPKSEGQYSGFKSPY
Test: SUPPLEMENTARY: Inhibition of human P2X7 receptor assessed as inhibition of ethidium bromide accumulation. Same assay as CHEMBL1103860

CN1C(=O)N(c2ccc(F)nc2)C[C@H]1C(=O)NCc1cccc(C(F)(F)F)c1Cl
IC50: 7.94 nM

Cc1c(Br)cccc1N1CCN(C(=O)c2cccc(C(F)(F)F)c2Cl)CC1=O
IC50: 6.31 nM

O=C1CN(C(=O)c2cccc(C(F)(F)F)c2Cl)CCN1CC1CCCCC1
IC50: 79.4 nM

CCC(CC)N1CCN(C(=O)c2cccc(C(F)(F)F)c2Cl)CC1=O
IC50: 6.31 nM

O=C1CN(C(=O)c2cccc(C(F)(F)F)c2Cl)CCN1CC1CC1
IC50: 12.6 nM

CCCN1CCN(C(=O)c2cccc(C(F)(F)F)c2Cl)CC1=O
IC50: 50.1 nM

O=C1CN(C(=O)c2cccc(C(F)(F)F)c2Cl)CCN1Cc1ccncc1
IC50: 316 nM

CN1C[C@@H](C(=O)NCc2ccc(Cl)cc2Cl)N(CC(F)(F)F)C1=O
IC50: 15.8 nM

CCN1C(=O)N(C)C[C@H]1C(=O)NCc1ccc(Cl)cc1Cl
IC50: 1.58 nM

CCN1C(=O)N(C)C[C@H]1C(=O)NCc1cccc(C(F)(F)F)c1Cl
IC50: 0.794 nM

CCN1C(=O)N(C)C[C@H]1C(=O)NCc1ccc(F)cc1Cl
IC50: 7.94 nM

COc1ccc(N2C[C@@H](C(=O)NCc3ccc(Cl)cc3Cl)N(C)C2=O)cn1
IC50: 15.8 nM

COc1ccc(N2C[C@@H](C(=O)NCc3cccc(C(F)(F)F)c3Cl)N(C)C2=O)cn1
IC50: 7.94 nM

O=C(c1cccc(C(F)(F)F)c1Cl)N1CCn2ccnc2C1
IC50: 100 nM

N#Cc1cc(F)ccc1N1CCN(C(=O)c2cccc(C(F)(F)F)c2Cl)CC1=O
IC50: 3.98 nM

O=C1CN(C(=O)c2cccc(C(F)(F)F)c2Cl)CCN1Cc1cccnc1
IC50: 398 nM

CN1C(=O)N(c2cnccn2)C[C@H]1C(=O)NCc1cccc(C(F)(F)F)c1Cl
IC50: 15.8 nM

CN1C(=O)N(c2cccnc2Cl)C[C@H]1C(=O)NCc1ccc(Cl)cc1Cl
IC50: 5.01 nM

O=C1CN(C(=O)c2cccc(C(F)(F)F)c2Cl)CCN1Cc1ccccn1
IC50: 158 nM

O=C1CN(C(=O)c2cccc(C(F)(F)F)c2Cl)CCN1CC1CCC1
IC50: 200 nM

O=C(c1cccc(C(F)(F)F)c1Cl)N1CCN(C2CCCC2)C(=O)C1
IC50: 158 nM

O=C1CN(C(=O)c2cccc(C(F)(F)F)c2Cl)CCN1CC1CCCO1 (stereo not drawn)
IC50: 79.4 nM

CN1C(=O)NC[C@H]1C(=O)NCc1cccc(C(F)(F)F)c1F
IC50: 39.8 nM

Cc1c(CNC(=O)[C@@H]2CNC(=O)N2C)cccc1C(F)(F)F
IC50: 2 nM

CN1C(=O)NC[C@H]1C(=O)NCc1ccc(Cl)c(C(F)(F)F)c1
IC50: 158 nM

CN1C(=O)N(c2cccnc2Cl)C[C@H]1C(=O)NCc1ccc(F)c(F)c1Cl
IC50: 10 nM

CN1C(=O)N(c2cccnc2Cl)C[C@H]1C(=O)NCc1cccc(C(F)(F)F)c1Cl
IC50: 1.58 nM

CN1C(=O)NC[C@H]1C(=O)NCc1ccc(F)c(C(F)(F)F)c1
IC50: 100 nM

Cc1c(Cl)cccc1CNC(=O)[C@@H]1CNC(=O)N1C
IC50: 20 nM

Cc1cc(Cl)cc(Cl)c1CNC(=O)[C@@H]1CNC(=O)N1C
IC50: 1.26 nM

Cc1cc(Cl)ccc1CNC(=O)[C@@H]1CNC(=O)N1C
IC50: 31.6 nM

CN1C(=O)N(c2ncc(F)cn2)C[C@H]1C(=O)NCc1ccc(Cl)cc1Cl
IC50: 3.98 nM

CCN1C(=O)NC[C@H]1C(=O)NCc1ccc(Cl)cc1Cl
IC50: 12.6 nM

CCN1C(=O)NC[C@H]1C(=O)NCc1ccc(F)cc1Cl
IC50: 39.8 nM

CCN1C(=O)NC[C@H]1C(=O)NCc1cccc(C(F)(F)F)c1Cl
IC50: 3.98 nM

Cc1c(Cl)cccc1CNC(=O)[C@@H]1CN(C)C(=O)N1C
IC50: 6.31 nM

CN1C[C@@H](C(=O)NCc2ccc(F)c(C(F)(F)F)c2)N(C)C1=O
IC50: 50.1 nM

CN1C[C@@H](C(=O)NCc2ccc(F)c(Cl)c2Cl)N(C)C1=O
IC50: 2.51 nM

CN1C[C@@H](C(=O)NCc2ccc(Cl)c(C(F)(F)F)c2)N(C)C1=O
IC50: 50.1 nM

CN1C[C@@H](C(=O)NCc2ccc(F)c(C(F)(F)F)c2Cl)N(C)C1=O
IC50: 1 nM

O=C(c1cccc(C(F)(F)F)c1Cl)N1CCn2cc(C(F)(F)F)nc2C1
IC50: 39.8 nM

O=C(c1ccc(Cl)cc1Cl)N1CCn2cc(C(F)(F)F)nc2C1
IC50: 794 nM

COc1ccnc(N2C[C@@H](C(=O)NCc3ccc(Cl)cc3Cl)N(C)C2=O)n1
IC50: 20 nM

Cc1cc(Cl)cc(Cl)c1CNC(=O)[C@@H]1CN(C)C(=O)N1C
IC50: 0.794 nM

CN1C(=O)N(c2ncc(Cl)cn2)C[C@H]1C(=O)NCc1ccc(Cl)cc1Cl
IC50: 6.31 nM

N#CCCN1CCN(C(=O)c2cccc(C(F)(F)F)c2Cl)CC1=O
IC50: 316 nM

CC(C#N)N1CCN(C(=O)c2cccc(C(F)(F)F)c2Cl)CC1=O (stereo not drawn)
IC50: 251 nM

Cc1ccc(N2C[C@@H](C(=O)NCc3ccc(Cl)cc3Cl)N(C)C2=O)cn1
IC50: 25.1 nM

Cc1ccc(N2C[C@@H](C(=O)NCc3ccc(F)c(F)c3Cl)N(C)C2=O)cn1
IC50: 31.6 nM

CN1C[C@@H](C(=O)NCc2ccc(Cl)cc2Cl)N(CC(F)F)C1=O
IC50: 15.8 nM

Cc1c(CNC(=O)[C@@H]2CN(C)C(=O)N2C)cccc1C(F)(F)F
IC50: 1.26 nM

Cc1cc(Cl)ccc1CNC(=O)[C@@H]1CN(C)C(=O)N1C
IC50: 7.94 nM

CN1C(=O)N(c2ccnc(F)c2)C[C@H]1C(=O)NCc1ccc(Cl)cc1Cl
IC50: 31.6 nM

CN1C[C@@H](C(=O)NCc2ccc(C#N)cc2Cl)N(C)C1=O
IC50: 31.6 nM

CN1C(=O)N(c2ccnc(F)c2)C[C@H]1C(=O)NCc1ccc(F)c(F)c1Cl
IC50: 12.6 nM

CN1C(=O)N(c2ccnc(F)c2)C[C@H]1C(=O)NCc1cccc(C(F)(F)F)c1Cl
IC50: 63.1 nM

CC(C)c1ccnc(N2C[C@@H](C(=O)NCc3ccc(Cl)cc3Cl)N(C)C2=O)n1
IC50: 158 nM

CN1C(=O)N(c2ncccc2F)C[C@H]1C(=O)NCc1ccc(Cl)cc1Cl
IC50: 2 nM

CN1C(=O)N(CC(F)F)C[C@H]1C(=O)NCc1ccc(Cl)cc1Cl
IC50: 2.51 nM

CN1C(=O)N(c2ccnn2C)C[C@H]1C(=O)NCc1ccc(Cl)cc1Cl
IC50: 10 nM

CN1C(=O)N(c2cccnc2C#N)C[C@H]1C(=O)NCc1ccc(Cl)cc1Cl
IC50: 31.6 nM

Cc1ccc(N2C[C@@H](C(=O)NCc3ccc(Cl)cc3Cl)N(C)C2=O)nn1
IC50: 398 nM

CN1C(=O)N(CC(F)(F)F)C[C@H]1C(=O)NCc1ccc(Cl)cc1Cl
IC50: 2 nM

CN1C(=O)N(CCF)C[C@H]1C(=O)NCc1ccc(Cl)cc1Cl
IC50: 3.16 nM

CCN1C[C@@H](C(=O)NCc2ccc(Cl)cc2Cl)N(C)C1=O
IC50: 3.16 nM

O=C(c1cccc(C(F)(F)F)c1Cl)N1CCn2c(-c3ccccc3)cnc2C1
IC50: 6.31 nM

CN1C(=O)NC[C@H]1C(=O)NCc1c(F)cc(Cl)cc1Cl
IC50: 15.8 nM

CN1C[C@@H](C(=O)NCc2c(F)cc(Cl)cc2Cl)N(C)C1=O
IC50: 5.01 nM

CN1C[C@@H](C(=O)NCc2c(Cl)cc(Cl)cc2Cl)N(C)C1=O
IC50: 0.794 nM

CN1C(=O)NC[C@H]1C(=O)NCc1c(Cl)cc(Cl)cc1Cl
IC50: 1.58 nM

CN1C(=O)N(CC2CC2)CC1C(=O)NCc1ccc(Cl)cc1Cl (stereo not drawn)
IC50: 3.16 nM

CN1C(=O)N(CC2CCC2)CC1C(=O)NCc1ccc(Cl)cc1Cl (stereo not drawn)
IC50: 5.01 nM

CC(C)N1CC(C(=O)NCc2ccc(Cl)cc2Cl)N(C)C1=O (stereo not drawn)
IC50: 5.01 nM

O=C(c1ccc(Cl)cc1Cl)N1CCn2c(-c3ccccc3)cnc2C1
IC50: 20 nM

CN1C(=O)N(C2CCCC2)CC1C(=O)NCc1ccc(Cl)cc1Cl (stereo not drawn)
IC50: 5.01 nM

O=C(c1cccc(C(F)(F)F)c1Cl)N1CCn2c(Br)nnc2C1
IC50: 7.94 nM

Cc1ccc(N2CCCC2)cc1N1CCN(C(=O)c2cccc(C(F)(F)F)c2Cl)CC1=O
IC50: 79.4 nM

Cc1ccc(Br)cc1N1CCN(C(=O)c2cccc(C(F)(F)F)c2Cl)CC1=O
IC50: 39.8 nM
